From patent publication US20250304563A1, “ACTIVATORS OF EFFECTOR T CELLS” (Orum Therapeutics, Inc., priority 2022, published 2025)

How the values were obtained:
Assay type in all cases: cell-based
Human primary T cells [1] = experiment: T cell activation: CD69 surface expression by flow cytometry; details: fold over anti-CD3 stimulated background normalized to Compound 141A; for CD69 10 nM: 10 nM compound; for CD69 100 nM: 100 nM compound
Protocol: (§1) Human primary T cells were isolated from commercially available frozen peripheral blood mononuclear cells (HemaCare Corporation) or from fresh LeukoPaks (Research Blood Components). T cells were isolated through depletion of non-T cells using negative selection kit according to the manufacturer's protocol (Miltenyi Biotec, Human Pan T Cell Isolation Kit, 130-096-535). Isolated cells were cultured overnight at 37° C. with 5% CO2 and plated at 1×10^5 cells per well in XVivo-15 serum-free media (Lonza, 04-418Q) into 96 well plates coated with anti-CD3 (OKT3) antibody (ThermoFisher, 16-0037-85). To coat the plates for T cell capture, anti-CD3 antibody was diluted in PBS at 10 μg/mL and 100 μl added to each well. Plates were incubated at 4° C. overnight or at 37° C. for 2 hours and washed once with PBS before use. Serial dilutions of each compound were added in duplicates to the T cells to assess their effect on T cell activation. T cells treated with 5 μg/mL of CD28 antibody (ThermoFisher, 16-0289-85) or T cells stimulated by CD3 only were used as a control. Plates were incubated with the Cbl-b inhibitors for 48 hours at 37° C. with 5% CO2, and supernatants were subsequently analyzed for levels of the activation induced secreted cytokines IL-2 or IFN-y (BD Biosciences CBA Flex Beads, 558269, 558270). T cells were additionally stained with anti-CD69 antibody (Invitrogen, 12-0699-42 which labels a T cell activation associated membrane protein to and surface expression was measured by flow cytometry (ThermoFisher Attune NxT).
(§2) To control for natural inter-donor variability in T cell responses intrinsic to using primary human donor derived cells, secreted IL-2 and IFN-y measurements for each test compound were reported as the fold increase of the compound treated levels over background (antiCD3/CD28 treatment only) normalized to the values obtained for Compound 141A. Results for compound treatment-induced changes in CD69 levels are similarly reported as the fold increase due to compound treatment over anti-CD3 stimulated background only, normalized to values obtained for Compound 141A.
Similarly, bins for normalized CD69 levels were sorted into ranges as follows: fold over background values between 1.11 and 1.6: range “X”, values between 0.81 and 1.10: range “A”; values between 0.61 and 0.80: range “B;” values between 0.30 and 0.60: range “C”.

Human primary T cells [2] = experiment: T cell activation: secreted IFN-y; details: 48 hours, fold over background normalized to Compound 141A; for IFN-y 1 nM: 1 nM compound; for IFN-y 10 nM: 10 nM compound; for IFN-y 100 nM: 100 nM compound
Protocol: as §1, §2
Normalized T cell IFN-y responses were sorted into ranges as follows: fold over background between 1.10 and 2.00: range “A”, values between 0.31 and 1.00: range “B;” values between 0.10 and 0.30: range “C”, and values between 0.01 and 0.09: range “D.”

Human primary T cells [3] = experiment: T cell activation: secreted IL-2; details: 48 hours, fold over background normalized to Compound 141A; for IL-2 1 nM: 1 nM compound; for IL-2 10 nM: 10 nM compound; for IL-2 100 nM: 100 nM compound
Protocol: as §1, §2
Normalized T cell IL-2 responses were sorted into ranges as follows: fold over background values between 1.41 and 1.8: range “X”, between 0.80 and 1.40: range “A”, values between 0.31 and 0.79: range “B” values between 0.10 and 0.30: range “C”, values between 0.01 and 0.09: range “D.”

| SMILES | CD69 10 nM (Human primary T cells [1]) | CD69 100 nM (Human primary T cells [1]) | IFN-y 1 nM (Human primary T cells [2]) | IFN-y 10 nM (Human primary T cells [2]) | IFN-y 100 nM (Human primary T cells [2]) | IL-2 1 nM (Human primary T cells [3]) | IL-2 10 nM (Human primary T cells [3]) | IL-2 100 nM (Human primary T cells [3]) |
| --- | --- | --- | --- | --- | --- | --- | --- | --- |
| C[C@H]1CCCN(Cc2cc3c(c(C(F)(F)F)c2)CN(c2cc(C4(Cc5nncn5C)COC4)cc(OCCO)n2)C3=O)C1 [Compound 100, 2-[6-(2-hydroxyethoxy)-4-{3-[(4-methyl-1,2,4-triazol-3-yl)methyl]oxetan-3-yl}pyridin-2-yl]-6-{[(3S)-3-methylpiperidin-1-yl]methyl}-4-(trifluoromethyl)-3H-isoindol-1-one] | C (values between 0.30 and 0.60: range “C”) | A (values between 0.81 and 1.10: range “A”) | C (values between 0.10 and 0.30: range “C”) | B (values between 0.31 and 1.00: range “B;”) | B (values between 0.31 and 1.00: range “B;”) | C (values between 0.10 and 0.30: range “C”) | B (values between 0.31 and 0.79: range “B”) | B (values between 0.31 and 0.79: range “B”) |
| CCOc1cc(C2(Cc3nncn3C)COC2)cc(N2Cc3c(cc(CN4CCC[C@H](C)C4)cc3C(F)(F)F)C2=O)n1 [Compound 146] | A (values between 0.81 and 1.10: range “A”) | A (values between 0.81 and 1.10: range “A”) | B (values between 0.31 and 1.00: range “B;”) | A (fold over background between 1.10 and 2.00: range “A”) | A (fold over background between 1.10 and 2.00: range “A”) | B (values between 0.31 and 0.79: range “B”) | B (values between 0.31 and 0.79: range “B”) | A (between 0.80 and 1.40: range “A”) |
| CCNc1cc(C2(Cc3nncn3C)COC2)cc(N2Cc3c(cc(CN4CCC[C@H](C)C4)cc3C(F)(F)F)C2=O)n1 [Compound 147] | A (values between 0.81 and 1.10: range “A”) | A (values between 0.81 and 1.10: range “A”) | B (values between 0.31 and 1.00: range “B;”) | A (fold over background between 1.10 and 2.00: range “A”) | A (fold over background between 1.10 and 2.00: range “A”) | B (values between 0.31 and 0.79: range “B”) | B (values between 0.31 and 0.79: range “B”) | A (between 0.80 and 1.40: range “A”) |
| C[C@H]1CCCN(Cc2cc3c(c(C(F)(F)F)c2)CN(c2cccc([C@]4(c5nncn5C)C[C@@H](C)C4)c2)C3=O)C1 [Compound 148] | A (values between 0.81 and 1.10: range “A”) | A (values between 0.81 and 1.10: range “A”) | B (values between 0.31 and 1.00: range “B;”) | A (fold over background between 1.10 and 2.00: range “A”) | A (fold over background between 1.10 and 2.00: range “A”) | B (values between 0.31 and 0.79: range “B”) | A (between 0.80 and 1.40: range “A”) | A (between 0.80 and 1.40: range “A”) |
